Values after ≈ are worked out from the molar mass of the structure shown.
What was measured:
Salmonella typhimurium = assay: Minimum inhibitory concentration, Salmonella typhimurium; assay type: cell-based; conditions: Salmonella enterica
Description: (§1) The minimum inhibitory concentrations required to inhibit different bacteria and fungal strains by Aranorosinol-A and Aranorosinol-B are given in Table I

[1] = tested on: Staphylococcus aureus 209 P; assay: Minimum inhibitory concentration, Staphylococcus aureus 209 P; assay type: cell-based
Description: as §1

Microsporum = assay: Minimum inhibitory concentration, Microsporum; assay type: cell-based
Description: as §1

Candida albicans = assay: Minimum inhibitory concentration, Candida albicans; assay type: cell-based
Description: as §1

[2] = tested on: Staphylococcus aureus 20240; assay: Minimum inhibitory concentration, Staphylococcus aureus 20240; assay type: cell-based
Description: as §1

Aspergillus niger = assay: Minimum inhibitory concentration, Aspergillus niger; assay type: cell-based
Description: as §1

E. coli 9632 = assay: Minimum inhibitory concentration, E. coli 9632; assay type: cell-based; conditions: Escherichia coli
Description: as §1

Solubility = assay type: physicochemical
Saccharomyces cerevisiae = assay: Minimum inhibitory concentration, Saccharomyces cerevisiae; assay type: cell-based
Description: as §1

Klebsiella pneumoniae = assay: Minimum inhibitory concentration, Klebsiella pneumoniae; assay type: cell-based
Description: as §1

Pseudomonas aeruginosa = assay: Minimum inhibitory concentration, Pseudomonas aeruginosa; assay type: cell-based
Description: as §1

Streptococcus faecalis = assay: Minimum inhibitory concentration, Streptococcus faecalis; assay type: cell-based; conditions: Enterococcus faecalis
Description: as §1

Proteus vulgaris = assay: Minimum inhibitory concentration, Proteus vulgaris; assay type: cell-based
Description: as §1

Bacillus subtilis = assay: Minimum inhibitory concentration, Bacillus subtilis; assay type: cell-based
Description: as §1

E. coli Ess 2231 = assay: Minimum inhibitory concentration, E. coli Ess 2231; assay type: cell-based; conditions: Escherichia coli, ESS2231
Description: as §1

[3] = tested on: Trichophyton mentagrophytes; assay: Minimum inhibitory concentration, Trichophyton mentagrophytes; assay type: cell-based
Description: as §1

[4] = tested on: bacteria and fungal strains; assay: Antibacterial and antifungal activity spectrum; assay type: cell-based; conditions: conclusion from Table I
Description: as §1

[5] = in dichloromethane, chloroform, acetone, methanol, diethyl ether, ethyl acetate and dimethyl sulfoxide

| SMILES | MIC (Salmonella typhimurium) | MIC [1] | MIC (Microsporum) | MIC (Candida albicans) | MIC [2] | MIC (Aspergillus niger) | MIC (E. coli 9632) | Solubility (Solubility; [5]) | Solubility (Solubility; in n-hexane, water) | MIC (Saccharomyces cerevisiae) | MIC (Klebsiella pneumoniae) | MIC (Pseudomonas aeruginosa) | MIC (Streptococcus faecalis) | MIC (Proteus vulgaris) | MIC (Bacillus subtilis) | MIC (E. coli Ess 2231) | MIC [3] | activity against bacteria and fungi (in words) [4] |
| --- | --- | --- | --- | --- | --- | --- | --- | --- | --- | --- | --- | --- | --- | --- | --- | --- | --- | --- |
| CCCCCCC(C)/C=C(C)/C=C/C(=O)NC1CC2(OC1O)C1OC1C(O)C1OC12 (stereo not drawn) [Aranorosinol-A] | > 250 mg/L | 15.6 mg/L (≈ 37 µM) | > 250 mg/L | 62.5 mg/L (≈ 148 µM) | 31.2 mg/L (≈ 74.1 µM) | > 250 mg/L | > 250 mg/L | soluble | Insoluble | 31.2 mg/L (≈ 74.1 µM) | > 250 mg/L | > 250 mg/L | 31.2 mg/L (≈ 74.1 µM) | > 250 mg/L | 3.9 mg/L (≈ 9.25 µM) | 62.5 mg/L (≈ 148 µM) | 62.5 mg/L (≈ 148 µM) | active against Gram-positive, Gram-negative bacteria and against yeast and filamentous fungi |
| CCCCCCC(C)/C=C(C)/C=C/C(=O)NC1CC2(OC1O)C1OC1C(O)(CC(C)=O)C1OC12 (stereo not drawn) [Aranorosinol-B] | > 250 mg/L | 31.2 mg/L (≈ 65.4 µM) | > 250 mg/L | 250 mg/L (≈ 523 µM) | 15.6 mg/L (≈ 32.7 µM) | > 250 mg/L | > 250 mg/L | soluble | Insoluble | 250 mg/L (≈ 523 µM) | > 250 mg/L | > 250 mg/L | 125 mg/L (≈ 262 µM) | > 250 mg/L | 15.6 mg/L (≈ 32.7 µM) | > 250 mg/L | > 250 mg/L | active against Gram-positive bacteria only |
